Results published in ChEMBL document CHEMBL1137979, “Nonpeptidic, noncovalent inhibitors of the cysteine protease cathepsin S” (J Med Chem, 2004).
pIC50: −log10 of the molar value.

test system: not listed separately; assay: Inhibitory concentration against human Li processing; type: functional

pIC50 | Compound
6.06 | N#Cc1ccccc1N1CCN(CC(Cn2nc(-c3ccc(I)cc3)c3c2CCN(C(N)=O)C3)OC(N)=O)CC1 (configuration not stated)

molecular target: Cathepsin S (Homo sapiens, UniProt P25774); assay: Inhibitory concentration against human cysteine protease cathepsin S
Sequence (P25774 whole entry): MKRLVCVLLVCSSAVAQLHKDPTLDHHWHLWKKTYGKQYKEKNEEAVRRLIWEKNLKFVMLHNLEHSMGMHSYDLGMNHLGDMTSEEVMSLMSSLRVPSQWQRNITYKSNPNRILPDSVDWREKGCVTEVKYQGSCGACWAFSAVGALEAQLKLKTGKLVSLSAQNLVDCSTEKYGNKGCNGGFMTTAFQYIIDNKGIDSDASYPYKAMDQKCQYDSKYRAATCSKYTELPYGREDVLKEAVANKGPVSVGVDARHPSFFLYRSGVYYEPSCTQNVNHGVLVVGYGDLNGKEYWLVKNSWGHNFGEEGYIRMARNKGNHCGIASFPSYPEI

Compound | pIC50
CC(=O)N1CCc2c(c(-c3ccc(Cl)cc3)nn2CC(O)CN2CCN(C(c3ccc(F)cc3)c3ccc(F)cc3)CC2)C1 (configuration not stated) | 6.00
COc1ccccc1N1CCN(CCCCn2nc(-c3ccc(Cl)cc3)c3c2CCN(C(C)=O)C3)CC1 | 5.02
N#Cc1ccccc1N1CCN(CC(Cn2nc(-c3ccc(I)cc3)c3c2CCN(C(N)=O)C3)OC(N)=O)CC1 (configuration not stated) | 7.70

Continued, values first:

pIC50 | Compound
6.00 | CC(=O)N1CCc2c(c(-c3ccc(Cl)cc3)nn2CC(O)CN2CCN(c3ccccc3Cl)CC2)C1 (configuration not stated)
4.85 | Cc1ccccc1N1CCN(CC(O)Cn2nc(-c3ccc(I)cc3)c3c2CCN(C(N)=O)C3)CC1 (configuration not stated)
6.22 | COc1ccccc1N1CCN(CC(O)Cn2nc(-c3ccc(I)cc3)c3c2CCN(C(C)=O)C3)CC1 (configuration not stated)
